Laboratory results reported in US12122785B2, “Substituted pyridines, pyridazines, pyrimidines, and 1,2,4-triazines as TYK2 inhibitors” (Sudo Biosciences Limited, priority 2021, dated 2024).

Key:
JAK2 kinase domain (JH1) = target: T1, JAK2 kinase domain (JH1) (Homo sapiens, UniProt O60674); assay: HTRF-based selectivity assay, JAK2 catalytic domain; type: biochemical; details: 14.7 μM ATP
T1 construct: recombinant purified His or GST-tagged catalytic domain for each enzyme; made in house
Procedure: (§1) Example B-2: HTRF-Based Selectivity Assay
(§2) The ability of compounds to inhibit the activity of JAK1, JAK2, JAK3 and TYK2 is measured using a recombinant purified His or GST-tagged catalytic domain for each enzyme (JAK1, JAK2 and TYK2 are generated in-house; JAK3 was purchased from Carna biosciences, Cat #08-046) in an HTRF format biochemical assay. The reactions employs a commercial peptide substrate from Cisbio (Cat #62TK0PEC). The basic assay protocol is as follows: first, 2.5 μL of diluted compounds (4×) in DMSO are dispensed into a 384-well Optiplate. Next, 2.5 μL of enzyme (final concentrations for enzymes are: TYK2—700 ng/mL, JAK1—80.6 ng/mL, JAK2—2.1 ng/mL and JAK3—171.8 ng/mL) is added and incubated at RT for 5-20 min. Finally, 5 μl of mixture of 2×ATP [Final concentration 20 μM for TYK2, 21.43 μM for JAK1, 14.7 μM for JAK2 and 2.12 μM for JAK3]+2× Substrate [Final concentration 217 nM for TYK2, 454.7 nM for JAK1, 200 nM for JAK2 and 257.4 nM for JAK3] is added to 384 well Optiplate. Composition of Kinase assay buffer used in the assay is as follows: HEPES 50 mM, EGTA 1 mM, MgCl2 10 mM, DTT 2 mM, Tween-20 0.01% and water. Then the plates are shaken and then incubated at 26.5° C. for 60 min.

TYK2 kinase domain (JH1) = target: T2, TYK2 kinase domain (JH1) (Homo sapiens, UniProt P29597); assay: HTRF-based selectivity assay, TYK2 catalytic domain; type: biochemical; details: 20 μM ATP
T2 construct: recombinant purified His or GST-tagged catalytic domain for each enzyme; made in house
T2 sequence (P29597 897-1176 limits assumed): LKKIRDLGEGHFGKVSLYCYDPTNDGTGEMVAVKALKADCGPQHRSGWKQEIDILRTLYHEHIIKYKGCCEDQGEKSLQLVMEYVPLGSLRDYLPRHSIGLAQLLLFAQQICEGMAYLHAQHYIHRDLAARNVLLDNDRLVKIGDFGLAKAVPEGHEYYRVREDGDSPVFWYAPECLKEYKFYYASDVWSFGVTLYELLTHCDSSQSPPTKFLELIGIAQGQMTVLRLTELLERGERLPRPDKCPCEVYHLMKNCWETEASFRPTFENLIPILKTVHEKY
Procedure: as §1, §2

[1] = test system: TYK2 pseudokinase (JH2); IL-23-stimulated HEK-Blue IL-23 cells; assay: HEK-Blue IL-23 reporter assay (STAT3-inducible SEAP) for profiling TYK2 pseudokinase (JH2) inhibition; type: cell-based; details: 10 ng/mL human recombinant IL-23, SEAP readout, read-out: IL23 (TYK2 inhibitory activity, IC50)
How it was run: (§3)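 Pretreatment with diluted compound lasted 60 min, after which IL-23 (10 ng/mL) or IFNα (1 ng/mL), both human recombinant, drove STAT3 or STAT1 reporter activity for 22-24 h or 16-18 h respectively. QUANTI-Blue detected the secreted phosphatase.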

JAK1 kinase domain (JH1) = target: T3, JAK1 kinase domain (JH1) (Homo sapiens, UniProt P23458); assay: HTRF-based selectivity assay, JAK1 catalytic domain; type: biochemical; details: 21.43 μM ATP, read-out: JAK-JHI (IC50)
T3 construct: recombinant purified His or GST-tagged catalytic domain for each enzyme; made in house
Procedure: as §1, §2

[2] = test system: IFNγ-stimulated HEK-Blue IFNγ reporter cells; assay: HEK-Blue IFNγ reporter assay (STAT1-inducible SEAP) for determining selectivity; type: cell-based; details: 50 ng/mL human recombinant IFNγ, 24 hours, read-out: IFN-γ SEAP selectivity assay IC50
How it was run: (§4)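 Cells were plated for 20-22 h, then pretreated with serially diluted compound for 60 min. They were stimulated for 24 h with 4 ng/mL human recombinant IL-2 or 50 ng/mL human recombinant IFNγ, and SEAP induction was read with QUANTI-Blue.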

JAK3 kinase domain (JH1) = target: T4, JAK3 kinase domain (JH1) (Homo sapiens, UniProt P52333); assay: HTRF-based selectivity assay, JAK3 catalytic domain; type: biochemical; details: 2.12 μM ATP
T4 construct: recombinant purified His or GST-tagged catalytic domain for each enzyme; purchased Carna biosciences 08-046
Procedure: as §1, §2

[3] = test system: IL-2-stimulated HEK-Blue IL-2 reporter cells; assay: HEK-Blue IL-2 reporter assay (STAT5-inducible SEAP) for determining selectivity; type: cell-based; details: 4 ng/mL human recombinant IL-2, 24 hours
How it was run: as §4

[4] = test system: TYK2 pseudokinase (JH2); IFNα-stimulated HEK-Blue IFNα/β cells; assay: HEK-Blue IFNα/β reporter assay (STAT1-inducible SEAP) for profiling TYK2 pseudokinase (JH2) inhibition; type: cell-based; details: 1 ng/mL human recombinant IFNα, SEAP readout, read-out: IFNα (TYK2 inhibitory activity, IC50)
How it was run: as §3

T1 sequence (O60674 849-1124 limits assumed): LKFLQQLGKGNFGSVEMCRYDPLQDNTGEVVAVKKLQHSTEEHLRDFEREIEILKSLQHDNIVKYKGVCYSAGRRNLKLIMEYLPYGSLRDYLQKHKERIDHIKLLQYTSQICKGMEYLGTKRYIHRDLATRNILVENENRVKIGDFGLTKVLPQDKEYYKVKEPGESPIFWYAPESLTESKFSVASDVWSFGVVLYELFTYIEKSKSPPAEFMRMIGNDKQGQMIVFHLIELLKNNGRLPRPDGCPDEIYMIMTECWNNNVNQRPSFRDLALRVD
T3 sequence (P23458 875-1153 limits assumed): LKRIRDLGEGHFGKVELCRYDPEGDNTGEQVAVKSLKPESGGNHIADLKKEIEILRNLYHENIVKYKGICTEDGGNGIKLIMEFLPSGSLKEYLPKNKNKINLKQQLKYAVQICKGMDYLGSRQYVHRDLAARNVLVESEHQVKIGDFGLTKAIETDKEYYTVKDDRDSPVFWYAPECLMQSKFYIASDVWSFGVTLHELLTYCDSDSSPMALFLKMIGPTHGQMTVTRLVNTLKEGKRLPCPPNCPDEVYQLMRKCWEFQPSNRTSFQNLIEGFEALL
T4 sequence (P52333 822-1111 limits assumed): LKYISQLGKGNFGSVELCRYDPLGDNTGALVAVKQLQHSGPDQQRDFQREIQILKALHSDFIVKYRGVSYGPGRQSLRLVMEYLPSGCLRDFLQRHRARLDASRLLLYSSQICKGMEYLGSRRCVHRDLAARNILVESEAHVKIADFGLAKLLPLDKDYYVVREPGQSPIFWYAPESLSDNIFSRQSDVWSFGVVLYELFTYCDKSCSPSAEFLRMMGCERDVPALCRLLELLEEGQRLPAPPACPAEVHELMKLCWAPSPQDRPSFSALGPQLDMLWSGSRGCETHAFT

Compound	IC50 (JAK2 kinase domain (JH1)) [nM]	IC50 (TYK2 kinase domain (JH1)) [nM]	IC50 (JAK1 kinase domain (JH1)) [nM]	IC50 (JAK3 kinase domain (JH1)) [nM]	IC50 [1] [nM]	IC50 [2] [nM]	IC50 [3] [nM]	IC50 [4] [nM]
[2H]C([2H])([2H])NC(=O)c1cnc(NC(=O)C2CC2)cc1Nc1cccc2c1N(C)Cc1cn(C([2H])([2H])[2H])nc1-2 [Compound 19, 6-(cyclopropanecarboxamido)-N-(methyl-d3)-4-((5-methyl-2-(methyl-d3)-4,5-dihydro-2H-pyrazolo[4,3-c]quinolin-6-yl)amino)nicotinamide]	> 1000	> 1000	> 1000	> 1000	< 30	> 1000	> 1000	< 30
[2H]C([2H])([2H])NC(=O)c1nnc(NC(=O)C2CC2)cc1Nc1cccc2c1N(C)Cc1cn(C([2H])([2H])[2H])nc1-2 [Compound 20, 6-(cyclopropanecarboxamido)-N-(methyl-d3)-4-((5-methyl-2-(methyl-d3)-4,5-dihydro-2H-pyrazolo[4,3-c]quinolin-6-yl)amino)pyridazine-3-carboxamide]	> 1000	> 1000	> 1000	> 1000	< 30	30 to 300	300 to 1000	< 30
[2H]C([2H])([2H])NC(=O)c1cnc(NC(=O)C2(O)CC2)cc1Nc1cccc2c1N(C)Cc1cn(C)nc1-2 [Compound 21, 4-((2,5-dimethyl-4,5-dihydro-2H-pyrazolo[4,3-c]quinolin-6-yl)amino)-6-(1-hydroxycyclopropane-1-carboxamido)-N-(methyl-d3)nicotinamide]	> 1000	> 1000	> 1000	> 1000	30 to 300	> 1000	> 1000	30 to 300
[2H]C([2H])([2H])NC(=O)c1cnc(NC(=O)C2CC2)nc1Nc1cccc2c1N(C)Cc1cn(C)nc1-2 [Compound 22, 2-(cyclopropanecarboxamido)-4-((2,5-dimethyl-4,5-dihydro-2H-pyrazolo[4,3-c]quinolin-6-yl)amino)-N-(methyl-d3)pyrimidine-5-carboxamide]	> 1000	> 1000	> 1000	> 1000	< 30	> 1000	> 1000	< 30
[2H]C([2H])([2H])NC(=O)c1cnc(NC(=O)C2CC2)cc1Nc1cccc2c1N(C)Cc1c[nH]nc1-2 [Compound 23, 6-(cyclopropanecarboxamido)-N-(methyl-d3)-4-((5-methyl-4,5-dihydro-2H-pyrazolo[4,3-c]quinolin-6-yl)amino)nicotinamide]	> 1000	> 1000	> 1000	> 1000	< 30	> 1000	> 1000	< 30
[2H]C([2H])([2H])NC(=O)c1cnc(NC(=O)C2CC2)cc1Nc1cccc2c1N(C([2H])([2H])[2H])Cc1cn(C)nc1-2 [Compound 26, 6-(cyclopropanecarboxamido)-N-(methyl-d3)-4-((2-methyl-5-(methyl-d3)-4,5-dihydro-2H-pyrazolo[4,3-c]quinolin-6-yl)amino)nicotinamide]	> 1000	> 1000	> 1000	> 1000	< 30	30 to 300	> 1000	< 30

Now from value to compound, other results behind:

IC50 (JAK2 kinase domain (JH1)) [nM]	IC50 (TYK2 kinase domain (JH1)) [nM]	IC50 (JAK1 kinase domain (JH1)) [nM]	IC50 (JAK3 kinase domain (JH1)) [nM]	Compound	IC50 [1] [nM]	IC50 [2] [nM]	IC50 [3] [nM]	IC50 [4] [nM]
300 to 1000	> 1000	> 1000	> 1000	Cn1cc2c(n1)-c1cccc(Nc3cc(Nc4ccc(F)cn4)nnc3C(N)=O)c1OC2 [Compound 8, 6-((5-fluoropyridin-2-yl)amino)-4-((2-methyl-2,4-dihydrochromeno[4,3-c]pyrazol-6-yl)amino)pyridazine-3-carboxamide]	< 30	< 30	300 to 1000	30 to 300
> 1000	> 1000	> 1000	> 1000	[2H]C([2H])([2H])NC(=O)c1cnc(Nc2cc(C)nc(C)n2)cc1Nc1cccc2c1OCc1cn(C)nc1-2 [Compound 9, 6-((2,6-dimethylpyrimidin-4-yl)amino)-N-(methyl-d3)-4-((2-methyl-2,4-dihydrochromeno[4,3-c]pyrazol-6-yl)amino)nicotinamide]	< 30	300 to 1000	> 1000	30 to 300
> 1000	> 1000	> 1000	> 1000	CNC(=O)c1nnc(Nc2ccc(F)cn2)cc1Nc1cccc2c1N(C)Cc1cn(C)nc1-2 [Compound 12, (4-((2,5-dimethyl-4,5-dihydro-2H-pyrazolo[4,3-c]quinolin-6-yl)amino)-6-((5-fluoropyridin-2-yl)amino)-N-methylpyridazine-3-carboxamide)]	< 30	30 to 300	> 1000	< 30
> 1000	> 1000	> 1000	> 1000	[2H]C([2H])([2H])NC(=O)c1cnc(Nc2ccc(F)cn2)cc1Nc1cccc2c1N(C)Cc1cn(C)nc1-2 [Compound 13, 4-((2,5-dimethyl-4,5-dihydro-2H-pyrazolo[4,3-c]quinolin-6-yl)amino)-6-((5-fluoropyridin-2-yl)amino)-N-(methyl-d3)nicotinamide]	< 30	300 to 1000	> 1000	< 30
> 1000	> 1000	> 1000	> 1000	[2H]C([2H])([2H])NC(=O)c1cnc(NC(=O)C2CC2)cc1Nc1cccc2c1N(C)Cc1cn(C)nc1-2 [Compound 14, 6-(cyclopropanecarboxamido)-4-((2,5-dimethyl-4,5-dihydro-2H-pyrazolo[4,3-c]quinolin-6-yl)amino)-N-(methyl-d3)nicotinamide]	< 30	300 to 1000	> 1000	< 30
> 1000	> 1000	> 1000	> 1000	[2H]C([2H])([2H])NC(=O)c1nnc(NC(=O)C2CC2)cc1Nc1cccc2c1N(C)Cc1cn(C)nc1-2 [Compound 15, 6-(cyclopropanecarboxamido)-4-((2,5-dimethyl-4,5-dihydro-2H-pyrazolo[4,3-c]quinolin-6-yl)amino)-N-(methyl-d3)pyridazine-3-carboxamide]	< 30	> 1000	> 1000	< 30
> 1000	> 1000	> 1000	> 1000	[2H]C([2H])([2H])NC(=O)c1cnc(Nc2cc(C)nc(C)n2)cc1Nc1cccc2c1N(C)Cc1cn(C)nc1-2 [Compound 16, 4-((2,5-dimethyl-4,5-dihydro-2H-pyrazolo[4,3-c]quinolin-6-yl)amino)-6-((2,6-dimethylpyrimidin-4-yl)amino)-N-(methyl-d3)nicotinamide]	< 30	30 to 300	300 to 1000	< 30
< 30	30 to 300	< 30	< 30	CN1Cc2cn(C)nc2-c2cccc(Nc3cc(NC(=O)C4CC4)ncc3C(N)=O)c21 [Compound 17, 6-(cyclopropanecarboxamido)-4-((2,5-dimethyl-4,5-dihydro-2H-pyrazolo[4,3-c]quinolin-6-yl)amino)nicotinamide]	< 30	< 30	< 30	< 30
